Results taken from PubChem BioAssay AID256 (DTP/NCI, 2004).
Values joined by “and” are separate entries in the source; they are usually repeats but may differ in a detail not shown here. Equal entries are not always repeated. Toxic doses and inconclusive results are not listed. Rule for the calls: active = survival T/C of 150% or more; inactive = T/C below 125% in these data.

System: CD2F1 mice, L1210 leukemia ip, survival T/C
Assay: NCI In Vivo Anticancer Drug Screen. Data for tumor model L1210 Leukemia (intraperitoneal) in CD2F1 (CDF1) mice
Conditions: higher = longer survival
Experimental: The antitumor activity of compounds was measured in mice bearing transplantable tumors. Survival or tumor size were measured and the results are expressed as the measurement made in the treated group (T) divided by the measurement made in the vehicle treated control group (C). The tumor model used in this assay is L1210 Leukemia (intraperitoneal) in CD2F1 (CDF1) mice

[1] = endpoint: mean survival time, dose: 50.0 mg/kg/injection, schedule: Q01DX009 (ip), vehicle: saline with Tween-80
[2] = endpoint: mean survival time, dose: 100.0 mg/kg/injection, schedule: Q01DX009 (ip), vehicle: saline with Tween-80
[3] = endpoint: mean survival time, dose: 200.0 mg/kg/injection, schedule: Q01DX009 (ip), vehicle: saline with Tween-80
[4] = endpoint: mean survival time, dose: 25.0 mg/kg/injection, schedule: Q04DX002 (ip), vehicle: saline with Tween-80
[5] = endpoint: mean survival time, dose: 75.0 mg/kg/injection, schedule: Q01DX001 (ip), vehicle: saline
[6] = endpoint: mean survival time, dose: 100.0 mg/kg/injection, schedule: Q01DX001 (ip), vehicle: saline with Tween-80
[7] = endpoint: mean survival time, dose: 200.0 mg/kg/injection, schedule: Q01DX001 (ip), vehicle: saline with Tween-80
[8] = endpoint: mean survival time, dose: 400.0 mg/kg/injection, schedule: Q01DX001 (ip), vehicle: saline with Tween-80
[9] = endpoint: mean survival time, dose: 25.0 mg/kg/injection, schedule: Q01DX009 (ip), vehicle: saline with Tween-80
[10] = endpoint: mean survival time, dose: 400.0 mg/kg/injection, schedule: Q01DX009 (ip), vehicle: saline with Tween-80
[11] = endpoint: mean survival time, dose: 100.0 mg/kg/injection, schedule: Q04DX003 (ip), vehicle: saline with Tween-80
[12] = endpoint: mean survival time, dose: 200.0 mg/kg/injection, schedule: Q04DX003 (ip), vehicle: saline with Tween-80
[13] = endpoint: mean survival time, dose: 400.0 mg/kg/injection, schedule: Q04DX003 (ip), vehicle: saline with Tween-80

Measured: T/C

C/C=C1/C(=O)Oc2ccccc21
inactive: [1] 101 % of control | [2] 101 % of control | [3] 106 % of control

CCC(N)C(O)C(C)C (configuration not stated)
inactive: endpoint: mean survival time, dose: 100.0 mg/kg/injection, schedule: Q01DX001 (ip), vehicle: saline 105 % of control | endpoint: mean survival time, dose: 200.0 mg/kg/injection, schedule: Q01DX001 (ip), vehicle: saline 90 % of control | endpoint: mean survival time, dose: 400.0 mg/kg/injection, schedule: Q01DX001 (ip), vehicle: saline 96 % of control

CC(C)OC(=O)Nc1ccncc1
inactive: [4] 104 % of control

CCOC(=O)c1ccc(OC(=O)Nc2cc(OC)ccc2OC)cc1
inactive: [2] 93 % of control | [3] 92 % of control

CCCCCCCCCCCCCCCCCC(=O)NCCN(CC)CC
inactive: [5] 101 % of control

COc1cc2c3c(c1)/C(=N\NC(N)=S)CCN3CCC2
inactive: [6] 93 % of control | [7] 105 % of control | [8] 93 % of control

COc1cc(C2c3cc4c(cc3CC3COC(=O)C32)OCO4)cc(OC)c1O (configuration not stated)
inactive: endpoint: mean survival time, dose: 0.5 mg/kg/injection, schedule: Q01DX009 (ip), vehicle: saline with Tween-80 91 % of control | endpoint: mean survival time, dose: 1.0 mg/kg/injection, schedule: Q01DX009 (ip), vehicle: saline with Tween-80 100 % of control | endpoint: mean survival time, dose: 2.0 mg/kg/injection, schedule: Q01DX009 (ip), vehicle: saline with Tween-80 112 % of control | endpoint: mean survival time, dose: 4.0 mg/kg/injection, schedule: Q01DX009 (ip), vehicle: saline with Tween-80 100 % of control

COC1OC(CCl)C(Cl)C(Cl)C1O (configuration not stated)
inactive: [6] 102 % of control | [7] 96 % of control | [8] 102 % of control

O=[N+]([O-])/C=C/c1ccccc1
inactive: endpoint: mean survival time, dose: 20.0 mg/kg/injection, schedule: Q01DX009 (ip), vehicle: saline with Tween-80 106 % of control | endpoint: mean survival time, dose: 20.0 mg/kg/injection, schedule: Q04DX003 (ip), vehicle: saline with Tween-80 102 % of control | endpoint: mean survival time, dose: 40.0 mg/kg/injection, schedule: Q04DX003 (ip), vehicle: saline with Tween-80 96 % of control | endpoint: mean survival time, dose: 80.0 mg/kg/injection, schedule: Q04DX003 (ip), vehicle: saline with Tween-80 94 % of control

CCCCSCCN
inactive: [4] 94 % of control | endpoint: mean survival time, dose: 50.0 mg/kg/injection, schedule: Q04DX002 (ip), vehicle: saline with Tween-80 94 % of control | endpoint: mean survival time, dose: 100.0 mg/kg/injection, schedule: Q04DX002 (ip), vehicle: saline with Tween-80 102 % of control

OCC#CCOCC(O)CCl (configuration not stated)
inactive: endpoint: mean survival time, dose: 25.0 mg/kg/injection, schedule: Q01DX009 (ip), vehicle: water 107 % of control | endpoint: mean survival time, dose: 50.0 mg/kg/injection, schedule: Q01DX009 (ip), vehicle: water 98 % of control | endpoint: mean survival time, dose: 100.0 mg/kg/injection, schedule: Q01DX009 (ip), vehicle: water 104 % of control | endpoint: mean survival time, dose: 200.0 mg/kg/injection, schedule: Q01DX009 (ip), vehicle: water 97 % of control

[Cl][Pt+2][Cl].[NH-]c1nc(-c2ccccc2)cs1.[NH-]c1nc(-c2ccccc2)cs1
inactive: endpoint: mean survival time, dose: 3.13 mg/kg/injection, schedule: Q04DX003 (ip), vehicle: distilled water + Tween-80 101 % of control | endpoint: mean survival time, dose: 6.25 mg/kg/injection, schedule: Q04DX003 (ip), vehicle: distilled water + Tween-80 101 % of control | endpoint: mean survival time, dose: 12.5 mg/kg/injection, schedule: Q04DX003 (ip), vehicle: distilled water + Tween-80 96 % of control | endpoint: mean survival time, dose: 25.0 mg/kg/injection, schedule: Q04DX003 (ip), vehicle: distilled water + Tween-80 102 % of control | endpoint: mean survival time, dose: 50.0 mg/kg/injection, schedule: Q04DX003 (ip), vehicle: distilled water + Tween-80 96 % of control | endpoint: mean survival time, dose: 100.0 mg/kg/injection, schedule: Q04DX003 (ip), vehicle: distilled water + Tween-80 98 % of control | endpoint: mean survival time, dose: 200.0 mg/kg/injection, schedule: Q04DX003 (ip), vehicle: distilled water + Tween-80 98 % of control

CN(C)N=Nc1ccccc1C(=O)NC#N
inactive: endpoint: mean survival time, dose: 9.38 mg/kg/injection, schedule: Q01DX009 (ip), vehicle: Klucel (hydroxypropylcellulose) (HPC) 101 % of control and 103 % of control and 104 % of control

CCCN(CCC)N=Nc1c(C(=O)OC)n[nH]c1C
inactive: [9] 97 % of control | [1] 102 % of control | [2] 104 % of control and 108 % of control | endpoint: mean survival time, dose: 117.0 mg/kg/injection, schedule: Q01DX009 (ip), vehicle: saline with Tween-80 122 % of control | endpoint: mean survival time, dose: 178.0 mg/kg/injection, schedule: Q01DX009 (ip), vehicle: saline with Tween-80 97 % of control

O=C(O)C1CCCN1C(=O)C(CSC(c1ccccc1)(c1ccccc1)c1ccccc1)NC(c1ccccc1)(c1ccccc1)c1ccccc1 (configuration not stated)
inactive: endpoint: mean survival time, dose: 50.0 mg/kg/injection, schedule: Q01DX009 (ip), vehicle: saline 101 % of control | endpoint: mean survival time, dose: 100.0 mg/kg/injection, schedule: Q01DX009 (ip), vehicle: saline 97 % of control | endpoint: mean survival time, dose: 200.0 mg/kg/injection, schedule: Q01DX009 (ip), vehicle: saline 98 % of control | endpoint: mean survival time, dose: 400.0 mg/kg/injection, schedule: Q01DX009 (ip), vehicle: saline 97 % of control

O=C(O)C(F)(F)C(F)(F)C(F)(F)C(F)=C(F)F
inactive: [5] 103 % of control | endpoint: mean survival time, dose: 150.0 mg/kg/injection, schedule: Q01DX001 (ip), vehicle: saline 101 % of control

NC(=O)NC(CC(=O)O)C(=O)O (configuration not stated)
inactive: [2] 96 % of control | [3] 98 % of control | [10] 95 % of control

Cc1ccc(S(=O)(=O)N/N=C/Cc2c(C)cc(C)cc2C)cc1
inactive: endpoint: median survival time, dose: 25.0 mg/kg/injection, schedule: Q04DX002 (ip), vehicle: saline with Tween-80 100 % of control | endpoint: median survival time, dose: 50.0 mg/kg/injection, schedule: Q04DX002 (ip), vehicle: saline with Tween-80 100 % of control | endpoint: median survival time, dose: 100.0 mg/kg/injection, schedule: Q04DX002 (ip), vehicle: saline with Tween-80 100 % of control | endpoint: median survival time, dose: 200.0 mg/kg/injection, schedule: Q04DX002 (ip), vehicle: saline with Tween-80 110 % of control

NCc1ccccc1
inactive: [2] 96 % of control | endpoint: mean survival time, dose: 100.0 mg/kg/injection, schedule: Q04DX003 (ip), vehicle: acetone 110 % of control | [11] 99 % of control | [3] 100 % of control | endpoint: mean survival time, dose: 200.0 mg/kg/injection, schedule: Q04DX003 (ip), vehicle: acetone 108 % of control | [12] 99 % of control | [10] 98 % of control | endpoint: mean survival time, dose: 400.0 mg/kg/injection, schedule: Q04DX003 (ip), vehicle: acetone 97 % of control | [13] 97 % of control

C/C=C\c1ccc(OCCOC(=O)Nc2c(Cl)cccc2Cl)c(OC)c1
inactive: endpoint: mean survival time, dose: 12.5 mg/kg/injection, schedule: Q01DX009 (ip), vehicle: saline with Tween-80 103 % of control | [9] 97 % of control | [1] 94 % of control and 99 % of control | [2] 94 % of control | [3] 94 % of control

CC(=O)OCCc1nnnn1C
inactive: [2] 101 % of control | [11] 104 % of control | [3] 104 % of control | [12] 104 % of control | [10] 104 % of control | [13] 101 % of control
